# Source: patent US20220288028A1, “A THERAPEUTIC APPROACH FOR TREATING NON-INFECTIOUS OCULAR IMMUNOINFLAMMATORY DISORDERS” (The Schepens Eye Research Institute, Inc., priority 2019, published 2022)
# Structures can show the parent of a compound that is named as a salt.
# Experiments:
# [1] = prevents use as an eye drop formulation; cited from earlier work
# ocular redness [2] = experiment: Rabbit model of non-allergic (non-infectious) ocular redness induced by dapiprazole, Ocular Redness Index (ORI); type: in vivo
# Text: (§1) An Image J-based, objective quantification method of ocular redness severity was developed without relying on ophthalmologists' subjective scoring (Amparo, et al. “The Ocular Redness Index: A Novel Automated Method for Measuring Ocular Injection.” Investigative Ophthalmology & Visual Science, 2013, pp. Quick submit: 2017-06-18T21:14:33-0400). This digital scoring method automatically analyzes patient eye images and gives the score as Ocular Redness Index (ORI), which ranges on a continuous centesimal scale from 0 to 100, with 100 the most severe redness. This method has been used in the animal models of ocular redness to evaluate the severity of redness.
# (§2) The results obtained can be seen in FIGS. 10-14. In the evaluation of ocular redness in animal models using Ocular Redness Index (ORI) with Image J the following steps. Step 1: The conjunctival image was captured by means of a digital camera and was recorded as an RGB color JPEG image (3264×2448 pixels). […] Step 3: An ROI (Region Of Interest, area inside the yellow circle) was selected as the evaluation area by user, and the program read the red-green-blue (RGB) values of each pixel, converting it to huesaturation-value (HSV) space, and ultimately converted these values into a numeric centesimal value for redness in the selected area automatically. […]
# DED mice [3] = experiment: Mouse model of DED, topical NK1R antagonist: corneal fluorescein staining (CFS); type: in vivo, C57BL/6 mice; details: topical 1 μg/μl three times per day, day 4 to 14; at day 7, 10 and 14; vs untreated and PBS-treated; p<0.05
# Text: FIGS. 6A, 6B, 7C, 8A-8C, and 9A-9D show the results of evaluating the in vivo therapeutic efficacy of blocking SP signaling in animal models of DED and ocular redness. DED was induced by exposing wild-type mice to desiccating stress using a controlled environment chamber for 14 days. No any other manipulations were used in the model. After 4 days induction, a clinical overt disease developed in mice (art-recognized model) and then a topical NK1R antagonist of either CP-99,994 or L-733,060, 3×/day, started and lasted for 10 days (until day 14). Untreated or PBS-treated mice serve as controls. Clinical severity of the disease was evaluated by clinical fluorescein scoring (CFS) using the National Eye Institute/Industry NEI grading scheme. […]
# Induction of Dry Eye Disease (DED): DED was induced by housing the mice in a low-humidity (relative humidity: <20%) controlled environment chamber (CEC) with constant airflow of 15 L/min and temperature of 21 to 23° C. for 14 days. […] Corneal epithelial disease was evaluated using fluorescein (Sigma-Aldrich) staining and scored using the National Eye Institute grading system (NEI, Bethesda, Md.; Chen Y. et al. IFN-gamma-Expressing TH17 Cells Are Required for Development of Severe Ocular Surface Autoimmunity. J Immunol 2017, 199:1163-9). […]
# DED mice [4] = experiment: Mouse model of DED, topical NK1R antagonist: flow cytometry of cornea, draining lymph nodes and conjunctivae; type: in vivo, C57BL/6 mice; details: topical 1 μg/μl three times per day, day 14; for frequencies of MHC-II^hi CD11b^+ cells in the cornea: day 4 to 14; for frequencies of TH17 cells in the DLNs / frequencies of mature MHC-II^hi CD11b^+ cells in the DLNs / level of MHC-II expression by CD11b^+ cells in the DLNs: vs PBS
# Procedure: (§3) Induction of Dry Eye Disease (DED): DED was induced by housing the mice in a low-humidity (relative humidity: <20%) controlled environment chamber (CEC) with constant airflow of 15 L/min and temperature of 21 to 23° C. for 14 days. Age- and sex-matched mice housed in room air conditions served as controls. Corneal epithelial disease was evaluated using fluorescein (Sigma-Aldrich) staining and scored using the National Eye Institute grading system (NEI, Bethesda, Md.; Chen Y. et al. IFN-gamma-Expressing TH17 Cells Are Required for Development of Severe Ocular Surface Autoimmunity. J Immunol 2017, 199:1163-9). 1 μl of 2.5% fluorescein was applied into the lateral conjunctival sac of the mice and after 3 minutes corneas were examined with a slit lamp biomicroscope under cobalt blue light. Punctate staining was recorded in a masked fashion with the standard National Eye Institute grading system of 0-3 for each of the five areas of the cornea.
# Topical Treatment with NK1R Antagonist: Mice were assigned to one of four groups (n=5 each). 1 μg/μl of NK1R antagonists CP-99,994, L-733,060 (R&D systems, Minneapolis, MN) or PBS was administered topically three times per day from day 4 to day 14 after DED induction. Untreated DED mice served as controls.
# Single Cell Suspension Preparation and Flow Cytometry: Submandibular and cervical draining lymph nodes (DLNs) were harvested and single cell suspensions were prepared. Cells were stimulated with phorbol 12-myristate 13-acetate (PMA, 50 ng/mL; Sigma-Aldrich) and Ionomycin (500 ng/mL; Sigma-Aldrich) for 6 hours in the presence of a commercial protein transport inhibitor (0.7 μL/100 μL media, Golgistop; BD Biosciences, San Jose, Calif.). Conjunctivae were harvested by lifting at the junction of bulbar and palpebral conjunctiva and dissecting along both bulbar and palpebral insertion points (Vannas Scissors; Storz, Bausch & Lomb). Conjunctiva samples were cultured in RPMI (Thermo Fisher Scientific, Waltham, Mass.) supplemented with 10% fetal bovine serum (FBS) and stimulated with PMA (50 ng/mL; Sigma-Aldrich) and Ionomycin (500 ng/mL; Sigma-Aldrich) in the presence of a protein transport inhibitor (0.7 μL/100 μL media, Golgistop; BD Biosciences) at 37° C. for 24 hours. Harvested corneas were digested in RPMI media containing 2 mg/ml collagenase type IV (Sigma-Aldrich) and 2 mg/ml DNase I (Roche) for 1 h at 37° C. The suspension was then filtered through a 70-μm cell strainer. Single-cell suspensions of DLN and cornea were stained with the following antibodies: Brilliant Violet 421-conjugated anti-mouse I-A/I-E (MHC-II), PE-conjugated anti-CD11c (BD Pharmingen, San Jose, Calif.), PerCP/Cy5.5-conjugated anti-CD11b, FITC-conjugated anti-CD4 (BioLegend, San Diego, Calif.), and PE-conjugated anti-interleukin 17A (eBioscience, San Diego, Calif.). Intranuclear staining with PE/Cy7-conjugated anti-Foxp3 (eBioscience) was performed after fixation and permeabilization of cells. Control samples were stained with appropriate isotype-matched antibodies. Stained cells were examined using an LSRII Flow Cytometer (BD Biosciences, Franklin Lakes, N.J., USA), and data were analyzed using commercial Summit software (Summit v4.3; Dako Colorado, Inc., Fort Collins, Colo.).
# IL-17 = experiment: Mouse model of DED, topical NK1R antagonist: real-time PCR of conjunctivae; type: in vivo, C57BL/6 mice; details: topical 1 μg/μl three times per day; day 14; vs PBS; p=0.001
# Procedure: as §3, with “1 μl of 2.5% fluorescein was applied into the lateral conjunctival sac of the mice and after 3 minutes corneas were examined with a slit lamp biomicroscope under cobalt blue light.” left out, “cornea. […]” for “cornea.”
# Real-Time PCR: Bulbar and palpebral conjunctiva, cornea and trigeminal ganglion were harvested from mice and stored in TRIzol reagent (Invitrogen, Carlsbad, Calif.) at −80° C. until RNA was isolated and reverse-transcribed using RNeasy micro kit (Qiagen, Valencia, Calif.) and SuperScript III kit (Invitrogen). […] Samples were analyzed using a real-time PCR system (LightCycler 480 II System; Roche Applied Science, Indianapolis, Ind.), and results were analyzed by the comparative threshold cycle method, using GAPDH as an internal control.
# [5] = test system: corneal epithelial wound healing; details: subconjunctival injection, diabetic mice; cited from earlier work
# ocular redness [6] = experiment: Guinea pig model of allergic ocular redness induced by histamine, Ocular Redness Index (ORI); type: in vivo; details: topical 1.0 mg/ml with 1.5 mg/ml histamine instillation, 20 μl; 1 hour; vs untreated induced control
# Text: as §1, §2
Structure (SMILES),CFS scores and DED severity (DED mice [3]),frequencies of MHC-II^hi CD11b^+ cells in the cornea (DED mice [4]),frequencies of TH17 cells in the DLNs (DED mice [4]),frequencies of mature MHC-II^hi CD11b^+ cells in the DLNs (DED mice [4]),level of MHC-II expression by CD11b^+ cells in the DLNs (DED mice [4]),mRNA expression levels of IL-17 in conjunctivae (IL-17),other results
"C[C@@H](O[C@H]1OCCN(Cc2n[nH]c(=O)[nH]2)[C@H]1c1ccc(F)cc1)c1cc(C(F)(F)F)cc(C(F)(F)F)c1 [MK-869, 5-[[(2R,3S)-2-[(1R)-[3,5-Bis(trifluoromethyl)phenyl]ethoxy]-3-(4-fluorophenyl)-4-morpholinylinyl]methyl]-1,2-dihydro-3H-1,2,4-triazol-3-one]",–,–,–,–,–,–,water solubility [1]: Poor water solubility
Cc1ccccc1N1CCN(CCc2nnc3n2CCCC3)CC1 [dapiprazole],–,–,–,–,–,–,"change in ORI score after induction (ocular redness [2]; 5% dapiprazole, 40 μl topical, series of increasing concentrations, 1-hour observation, vs PBS): highest increase in ORI score"
"FC(F)(F)c1cc(CO[C@H]2CCCN[C@H]2c2ccccc2)cc(C(F)(F)F)c1 [L-733,060, (2S,3S)-3-[[3,5-bis(Trifluoromethyl)phenyl]methoxy]-2-phenylpiperidine hydrochloride]",significantly reduced CFS scores and DED severity,significantly lower,significantly decreased,significant decrease,significant decrease,significant reduction,protective role of SP on epithelial healing [5]: significantly inhibits the protective role of SP on epithelial healing
"COc1ccccc1CN[C@H]1CCCN[C@H]1c1ccccc1 [CP-99,994, (2S,3S)-N-[(2-Methoxyphenyl)methyl]-2-phenyl-3-piperidinamine dihydrochloride]",significantly reduced CFS scores and DED severity,significantly lower,significantly decreased,significant decrease,significant decrease,significant reduction,–
"Ic1ccccc1CN[C@@H]1C2CCN(CC2)[C@@H]1C(c1ccccc1)c1ccccc1 (racemic) [L-703,606]",–,–,–,–,–,–,"ocular redness (change in ORI score) (ocular redness [2]; topical 1.0 mg/ml with 5% dapiprazole instillation, 40 μl, 1 hour, vs untreated induced control): rapidly and consistently ameliorating the ocular redness; ocular redness (change in ORI score) (ocular redness [6]): rapidly and consistently ameliorating the ocular redness"
